In data set [1] the test system is BCRP. The following applies: read-out: Ki as BCRP inhibitor in vitro; cited from earlier work.
Data set [2] deals with T1, UGT1A1 (Homo sapiens, UniProt P22309).
T1 sequence (P22309 26-533): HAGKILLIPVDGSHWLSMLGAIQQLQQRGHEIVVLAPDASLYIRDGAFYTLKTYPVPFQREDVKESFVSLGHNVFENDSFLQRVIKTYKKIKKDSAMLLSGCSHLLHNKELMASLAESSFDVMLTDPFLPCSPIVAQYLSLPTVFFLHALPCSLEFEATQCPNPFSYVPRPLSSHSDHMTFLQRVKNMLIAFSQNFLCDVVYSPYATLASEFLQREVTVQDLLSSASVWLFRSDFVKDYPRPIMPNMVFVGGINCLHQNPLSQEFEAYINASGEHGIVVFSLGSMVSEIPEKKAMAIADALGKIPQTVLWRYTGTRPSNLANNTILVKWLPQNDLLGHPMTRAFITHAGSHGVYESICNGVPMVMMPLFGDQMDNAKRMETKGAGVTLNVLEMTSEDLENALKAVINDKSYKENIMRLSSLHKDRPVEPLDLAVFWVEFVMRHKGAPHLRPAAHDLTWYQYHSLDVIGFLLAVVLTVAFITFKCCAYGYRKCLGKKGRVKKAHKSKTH
It is filed as biochemical. The following applies: inhibitor 5 and 20 μM.

The test system of a further data set is HeLa1A1 cells. Put plainly: BDMC-O-glucuronide excretion experiments in HeLa1A1 cells. The following applies: inhibitor 5 and 20 μM, 5 μM BDMC, versus control. The class given is cell-based, human.
In data set [3] the target is T2, HeLa1A1 cell lysate (Homo sapiens, UniProt P22309).
T2 sequence (P22309 26-533): T1 sequence (P22309 26-533)
It is filed as biochemical. The following applies: inhibitor 5 and 20 μM.

Data set [4] deals with BCRP. The following applies: read-out: IC50 as BCRP inhibitor; cited from earlier work.
The conditions of data set [5]: estimated from in vivo metabolism of curcumin and demethoxycurcumin; cited from earlier work.
For data set [6] the following is noted: orally administered; cited from earlier work.
For a further data set, the system named is Hela cells. Nature of the data set: Toxicity of BDMC on Hela cells. It is filed as cell-based, human. As to conditions: within experimental concentration (maximal 8 μM).
Data set [7] deals with T1, UGT1A1. Put plainly: Glucuronidation kinetics by expressed UGT1A1.
Data set [8] has as its target T1, UGT1A1. Nature of the data set: Glucuronidation kinetics by HeLa1A1 cell lysate. The following applies: human, HeLa1A1 cell lysate (HeLa cells expressing UGT1A1), pH 7.4.
The next data set addresses aldoketo reductase 1B10. As to conditions: read-out: Ki against aldoketo reductase 1B10; tumor marker; cited from earlier work.
Data set [9] concerns the target T2, HeLa1A1 cell lysate. Nature of the data set: Glucuronidation kinetics by HeLa1A1 cell lysate. The following applies: HeLa1A1 cell lysate supplemented with UDPGA.

Here are results for four compounds from paper PMC7383220 (BioFactors (Oxford, England), 2018).

With `COc1cc(/C=C/C(=O)CC(=O)/C=C/c2ccc(O)c(OC)c2)ccc1O` [curcumin], the Ki – broadly, a dissociation constant, usually derived from enzyme kinetics or from competition with a known ligand – in the data set on BCRP [1] was 0.7 ± 0.41 µM.

As for `COc1ccc2c3c([nH]c2c1)[C@H](CC(C)C)N1C(=O)[C@H](CCC(=O)OC(C)(C)C)NC(=O)[C@@H]1C3` [Ko143], on UGT1A1 [2], the “Effect on glucuronidation of BDMC by UGT1A1 enzyme” value is listed as “inhibit”. Moreover, in the data set on HeLa1A1 cells (cells collected at 2 h), the “Increase of intracellular levels of BDMC-O-glucuronide” value is 28.8–48.1%. Besides, the “Decrease of BDMC-O-glucuronide excretion” value with HeLa1A1 cells was 18.4–55.6%. Besides, the “Effect on glucuronidation of BDMC by HeLa1A1 cell lysate” value at HeLa1A1 cell lysate [3] is on record as “inhibit”. Besides, in the data set on BCRP [4], the IC50 (usually the concentration that inhibits the measured activity by half) was […].

In the case of `O=C(/C=C/c1ccc(O)cc1)CC(=O)/C=C/c1ccc(O)cc1` [BDMC, Bisdemethoxycurcumin], the “Fraction of ingested compound excreted in feces without absorption” value in data set [5] is “over 75%”. In [6], the “Glucuronide in general blood circulation” value is on record as “Approximately 50 nM” and the “Glucuronide/sulfate conjugates in general blood circulation” value is recorded as “about 10 nM”. Also, in the data set with Hela cells, the “Toxicity on Hela cells” value was “no significant toxicities”. The microsomal CLint (usually the rate of metabolic loss divided by the concentration) at UGT1A1 [7] (human, recombinant UGT1A1, pH 7.4) worked out at 235 ± 34.5 µL/min/mg. Further, at UGT1A1 [8], the microsomal CLint is 164 ± 19.8 µL/min/mg. The Ki on aldoketo reductase 1B10 is 0.022 µM.

Consider `C[C@]12CC[C@@H]3c4ccc(O)cc4CC[C@H]3[C@@H]1CC[C@@H]2O` [β-estradiol], for which the Michaelis constant (Km) (usually the substrate concentration at which the rate is half of its maximum) at UGT1A1 [7] (UGT1A1 enzyme supplemented with UDPGA) was 24.6 ± 3.01 µM; at HeLa1A1 cell lysate [9], 27.1 ± 2.51 µM. Besides, at HeLa1A1 cell lysate [9], the maximum rate (Vmax) (as a rule, the rate approached at saturating substrate) amounted to 186.20 ± 5.63 pmol/min/mg.
